Results from PubChem BioAssay AID1259407 (Chemical Carcinogenesis Research Information System (CCRIS), 2018).
Entries after “also recorded” stand apart in the source; their conditions may differ. Activity calls are given as the source filed them. No rule for the calls is given here.

Test system: CCRIS mutagenicity, Ames/micronucleus/aberration tests
Experiment: CCRIS mutagenicity studies
[1] = Test System: AMES SALMONELLA TYPHIMURIUM, Strain/Indicator: TA98, Metabolic Activation: NONE, Method: PREINCUBATION
[2] = Test System: AMES SALMONELLA TYPHIMURIUM, Strain/Indicator: TA100, Metabolic Activation: NONE, Method: PREINCUBATION
[3] = Test System: AMES SALMONELLA TYPHIMURIUM, Strain/Indicator: TA1535, Metabolic Activation: NONE, Method: PREINCUBATION
[4] = Test System: AMES SALMONELLA TYPHIMURIUM, Strain/Indicator: TA1537, Metabolic Activation: NONE, Method: PREINCUBATION
[5] = Test System: AMES SALMONELLA TYPHIMURIUM, Strain/Indicator: TA98, Metabolic Activation: NONE, Method: STANDARD PLATE
[6] = Test System: AMES SALMONELLA TYPHIMURIUM, Strain/Indicator: TA98, Metabolic Activation: RAT, LIVER, S-9, AROCLOR 1254, Method: STANDARD PLATE
[7] = Test System: AMES SALMONELLA TYPHIMURIUM, Strain/Indicator: TA100, Metabolic Activation: RAT, LIVER, S-9, AROCLOR 1254, Method: STANDARD PLATE
[8] = Test System: AMES SALMONELLA TYPHIMURIUM, Strain/Indicator: TA98, Metabolic Activation: NONE

COC(=O)C1=C(C)NC(C)=C(C(=O)OCCc2ccc(N3CCN(C(c4ccccc4)c4ccccc4)CC3)cc2)C1c1cccc([N+](=O)[O-])c1 (configuration not stated)
mutagenic call [1]: inactive; negative | mutagenic call (Test System: AMES SALMONELLA TYPHIMURIUM, Strain/Indicator: TA98, Metabolic Activation: RAT, LIVER, S-9, PHENOBARBITAL AND 5,6-BENZOFLAVONE, Method: PREINCUBATION): inactive; negative | mutagenic call [2]: inactive; negative | mutagenic call (Test System: AMES SALMONELLA TYPHIMURIUM, Strain/Indicator: TA100, Metabolic Activation: RAT, LIVER, S-9, PHENOBARBITAL AND 5,6-BENZOFLAVONE, Method: PREINCUBATION): inactive; negative | mutagenic call [3]: inactive; negative | mutagenic call (Test System: AMES SALMONELLA TYPHIMURIUM, Strain/Indicator: TA1535, Metabolic Activation: RAT, LIVER, S-9, PHENOBARBITAL AND 5,6-BENZOFLAVONE, Method: PREINCUBATION): inactive; negative | mutagenic call [4]: inactive; negative | mutagenic call (Test System: AMES SALMONELLA TYPHIMURIUM, Strain/Indicator: TA1537, Metabolic Activation: RAT, LIVER, S-9, PHENOBARBITAL AND 5,6-BENZOFLAVONE, Method: PREINCUBATION): inactive; negative | mutagenic call (Test System: E. COLI, Strain/Indicator: WP2 UVRA, Metabolic Activation: NONE, Method: PREINCUBATION): inactive; negative | mutagenic call (Test System: E. COLI, Strain/Indicator: WP2 UVRA, Metabolic Activation: RAT, LIVER, S-9, PHENOBARBITAL AND 5,6-BENZOFLAVONE, Method: PREINCUBATION): inactive; negative

COc1ccc(C)cc1N
mutagenic call (End Point: In vitro chromosomal aberrations, Test System: Chinese hamster lung (CHL/IU) cells, Metabolic Activation: None): active; positive (structural changes). toxicity at 1.2 mg/ml; also recorded: active; positive (structural changes). toxicity at 0.60 mg/ml; also recorded: active; positive (structural changes). toxicity at 0.8 mg/ml; no dose response observed | mutagenic call (End Point: In vitro chromosomal aberrations, Test System: Chinese hamster lung (CHL/IU) cells, Metabolic Activation: Rat, Liver, S9, Phenobarbital and 5,6-benzoflavone): active; positive (structural changes and ploidy). toxicity at 1.2 mg/ml; no dose respons | mutagenic call (End Point: In vivo micronucleus, Test System: Polychromatic erythrocytes, Species: Mouse, Strain/Sex: C57BL/6TacBr-[KO]p53[TSG-p53], Route: Oral): active; positive at all days | mutagenic call (Test System: AMES SALMONELLA TYPHIMURIUM, Strain/Indicator: TA98, Metabolic Activation: HAMSTER, LIVER, S-9, AROCLOR 1254 (30%), Method: PREINCUBATION): active; positive | mutagenic call (Test System: AMES SALMONELLA TYPHIMURIUM, Strain/Indicator: TA98, Metabolic Activation: HAMSTER, LIVER, S-9, PHENOBARBITAL AND BETA-NAPHTHOFLAVONE, Method: PREINCUBATION): active; positive | mutagenic call [1]: inactive; negative | mutagenic call (Test System: AMES SALMONELLA TYPHIMURIUM, Strain/Indicator: TA98, Metabolic Activation: RAT, LIVER, S-9, AROCLOR 1254 (30%), Method: PREINCUBATION): active; positive | mutagenic call (Test System: AMES SALMONELLA TYPHIMURIUM, Strain/Indicator: TA100, Metabolic Activation: HAMSTER, LIVER, S-9, AROCLOR 1254 (30%), Method: PREINCUBATION): active; positive | mutagenic call (Test System: AMES SALMONELLA TYPHIMURIUM, Strain/Indicator: TA100, Metabolic Activation: HAMSTER, LIVER, S-9, PHENOBARBITAL AND BETA-NAPHTHOFLAVONE, Method: PREINCUBATION): active; positive | mutagenic call [2]: inactive; negative | mutagenic call (Test System: AMES SALMONELLA TYPHIMURIUM, Strain/Indicator: TA100, Metabolic Activation: RAT, LIVER, S-9, AROCLOR 1254 (30%), Method: PREINCUBATION): active; positive | mutagenic call (Test System: AMES SALMONELLA TYPHIMURIUM, Strain/Indicator: TA1535, Metabolic Activation: HAMSTER, LIVER, S-9, PHENOBARBITAL AND BETA-NAPHTHOFLAVONE, Method: PREINCUBATION): inactive; negative | mutagenic call [3]: inactive; negative | mutagenic call (Test System: AMES SALMONELLA TYPHIMURIUM, Strain/Indicator: TA1537, Metabolic Activation: HAMSTER, LIVER, S-9, PHENOBARBITAL AND BETA-NAPHTHOFLAVONE, Method: PREINCUBATION): active; positive | mutagenic call [4]: inactive; negative | mutagenic call (Test System: E. COLI, Strain/Indicator: WP2UVRA, Metabolic Activation: HAMSTER, LIVER, S-9, PHENOBARBITAL AND BETA-NAPHTHOFLAVONE, Method: PREINCUBATION): inactive; negative | mutagenic call (Test System: E. COLI, Strain/Indicator: WP2 UVRA, Metabolic Activation: HAMSTER, LIVER, S-9, Method: STANDARD PLATE): inactive; negative | mutagenic call (Test System: E. COLI, Strain/Indicator: WP2 UVRA, Metabolic Activation: MOUSE, LIVER, S-9, AROCLOR 1254, Method: STANDARD PLATE): inactive; negative | mutagenic call (Test System: E. COLI, Strain/Indicator: WP2UVRA, Metabolic Activation: NONE, Method: PREINCUBATION): inactive; negative | mutagenic call (Test System: E. COLI, Strain/Indicator: WP2 UVRA, Metabolic Activation: NONE, Method: STANDARD PLATE): inactive; negative | mutagenic call (Test System: E. COLI, Strain/Indicator: WP2 UVRA, Metabolic Activation: RAT, LIVER, S-9, AROCLOR 1254, Method: STANDARD PLATE): inactive; negative | mutagenic call (Test System: E. COLI, Strain/Indicator: WP2 UVRA, Metabolic Activation: RAT, LIVER, S-9, Method: STANDARD PLATE): inactive; negative | mutagenic call (Test System: UDS RODENT HEPATOCYTES, Strain/Indicator: THY INCORP (NON-S-PHASE), Metabolic Activation: NONE, Method: AUTORADIOGRAPHY): inactive; negative

O=c1ccc2cc3cc4cccc5ccc(c2c1)c3c54
mutagenic call [5]: inactive; negative | mutagenic call [6]: inactive; negative | mutagenic call [7]: active; positive

O=C(O)[C@@H]1Cc2c([nH]c3ccccc23)[C@@H]([C@H]2CCNC2=S)N1
mutagenic call [8]: inactive; negative | mutagenic call (Test System: AMES SALMONELLA TYPHIMURIUM, Strain/Indicator: TA98, Metabolic Activation: S-9): active; positive | mutagenic call (Test System: AMES SALMONELLA TYPHIMURIUM, Strain/Indicator: TA100, Metabolic Activation: NONE): inactive; negative | mutagenic call (Test System: AMES SALMONELLA TYPHIMURIUM, Strain/Indicator: TA100, Metabolic Activation: S-9): inactive; negative

O=S(=O)(c1ccc(Cl)cc1)c1cc(Cl)c(Cl)cc1Cl
mutagenic call (End Point: In vivo chromosomal aberrations, Test System: Bone marrow cells, Species: Rat, Strain/Sex: Wistar/Female, Route: Oral): inactive; negative | mutagenic call (Test System: AMES SALMONELLA TYPHIMURIUM, Strain/Indicator: TA97A, Metabolic Activation: NONE, Method: STANDARD PLATE): inactive; negative | mutagenic call (Test System: AMES SALMONELLA TYPHIMURIUM, Strain/Indicator: TA97A, Metabolic Activation: RAT, LIVER, S-9, AROCLOR 1254, Method: STANDARD PLATE): inactive; negative | mutagenic call [5]: inactive; negative | mutagenic call [6]: inactive; negative | mutagenic call (Test System: AMES SALMONELLA TYPHIMURIUM, Strain/Indicator: TA100, Metabolic Activation: NONE, Method: STANDARD PLATE): inactive; negative | mutagenic call [7]: inactive; negative | mutagenic call (Test System: AMES SALMONELLA TYPHIMURIUM, Strain/Indicator: TA102, Metabolic Activation: NONE, Method: STANDARD PLATE): inactive; negative | mutagenic call (Test System: AMES SALMONELLA TYPHIMURIUM, Strain/Indicator: TA102, Metabolic Activation: RAT, LIVER, S-9, AROCLOR 1254, Method: STANDARD PLATE): inactive; negative

Nc1ccc2ccc3c4ccccc4cc4ccc1c2c43
mutagenic call [8]: active; positive | mutagenic call (Test System: AMES SALMONELLA TYPHIMURIUM, Strain/Indicator: TA98, Metabolic Activation: RAT, LIVER, S-9, AROCLOR 1254): active; positive

O=[N+]([O-])c1ccc2ccc3cc4c(c5ccc1c2c35)CCCC4O (configuration not stated)
mutagenic call [5]: active; positive
